From article PMC7592081, “Single-Atom Nanozymes Linked Immunosorbent Assay for Sensitive Detection of Aβ 1-40: A Biomarker of Alzheimer's Disease” (Research, 2020) come the findings set out here.

The subject of the experiment is T1, horseradish peroxidase (HRP).
T1 construct: gene PRXC1A; natural HRP
In words: steady-state kinetics, Michaelis-Menten fit, absorbance of oxidised TMB ([…] nm). The class given is biochemical, Armoracia rusticana. To be noted: co-substrate H2O2; acetate buffer pH 3.6 (printed for the nanozyme assay).

In the case of `Cc1cc(-c2cc(C)c(N)c(C)c2)cc(C)c1N` [3,3′,5,5′-tetramethylbenzidine], the Km was 427 µM.
